Measured values from article PMC10536304 (2023).

Assays:
[1] = tested on: AU-RNA (poly A-poly U; rArU-RNA) (RNA, polymer) A/U; assay: CD titration, Scatchard; details: Na+ (sodium cacodylate, I = 0.05 M); sodium cacodylate pH 7.0, 25 °C; Scatchard n fixed 0.2 per phosphate; per base
[2] = tested on: AU-RNA (poly A-poly U; rArU-RNA) (RNA, polymer) A/U; assay: UV thermal melting, 260 nm; details: Na+ (sodium cacodylate, I = 0.05 M); sodium cacodylate pH 7.0; r[compound]/[polynucleotide] = 0.1, polynucleotide 25 µM (phosphate); per base

logKs [1]: 6.5 log(M^-1) | ∆Tm [2]: 3.7 ± 0.5 °C
SMILES: c1cc2ccc3ccc(CNCCCNCCN(CCNCCCNCc4ccc5ccc6cccc7ccc4c5c67)CCNCCCNCc4ccc5ccc6cccc7ccc4c5c67)c4ccc(c1)c2c34
